Experimental data from patent publication US6001872A, “Water soluble transplatinum complexes with anti-cancer activity and method of using same” (priority 1999, dated 1999).
“Also recorded” adds a separate entry of the source.

What was measured:
[1] = N,O-chelate formation (displacement of chloride by carboxylate, complex 1 to complex 2); assay type: physicochemical
Text: The details of this synthesis may be found in Example 1 below. The preparation utilizes the anionic N,O-chelating ligand pyridine-2-yl-acetate (PyAc), which introduces a carboxylate donor cis to the nitrogen atom of the planar ligand. The bidentate ligand was used in its O-protected form, i.e., the corresponding methylester (PyAcMe). Formation of the N,O-chelate was achieved via the intermediate dichloro form, trans-[PtCl2 (NH3)(PyAcH)].H2 O (complex 1.H2 O) at neutral pH.
For the purposes of this invention, it should be further noted that the form for administration to patients may be either complex 1 or complex 2, since the former would spontaneously form the N-O chelate under physiological conditions.

[2] = system: murine L1210 cisplatin-sensitive leukemia cells; assay: Cytotoxicity: cell-growth inhibition in murine L1210 cisplatin-sensitive leukemia cells, 72-hour drug incubation; assay type: cell-based; details: for IC50: 72-hour drug incubation, read-out: ID50 (50% inhibitory drug concentration); for cytotoxicity compared with cisplatin: in vitro
Procedure: Studies were performed in vitro to assess the cytotoxicity of trans-[Pt(PyAc-N,O)Cl(NH3)] in comparison to several relevant Pt compounds. Cytotoxicity was monitored by cell-growth inhibition experiments in murine L1210 cisplatin-sensitive leukemia cells. The L1210 cell line has been used as a prognosticator of human antitumor activity for some time [Wolpert-DeFilippes, M. K., "Antitumor Activity of Cisplatin Analogs" in: Cisplatin. Current Status and Developments, Prestayko, A. W., Crooke, S. T., and Carter, S. K., eds, Academic Press, (London) 1980, pp. 183-192.]. A separate, non-treated culture was used as a control for these investigations.

[3] = in vivo; cited from earlier work
[4] = presence of a planar ligand, trans geometry; cited from earlier work

| Compound | IC50 [2] | cytotoxicity compared with cisplatin [2] | also measured |
| --- | --- | --- | --- |
| trans-[PtCl2 (NH3)(PyAcH)] [Complex 1] | – | – | displacement of chloride by carboxylate ([1]; e.g. in 10^-2 M HCl): remarkably facile; formation of complex 2 from complex 1 ([1]; pH values greater than 2): readily formed |
| cis-[Pt(PyAc-N,O)Cl(NH3)] | > 20000 nM | inactive | cytotoxicity compared with cisplatin ([2]; listed as cis-isomer): must be considered inactive |
| N.N.[Cl][Pt][Cl] [cisplatin, cis-[PtCl2 (NH3)2]] | 430 nM | – | – |
| N.N.[Cl][Pt+2][Cl] [transplatin, trans-[PtCl2 (NH3)2]] | 14000 nM | inactive | therapeutic/biological activity [3]: biologically inactive; also recorded: therapeutically inactive |
| N.[Cl][Pt][Cl].c1ccc2ncccc2c1 [trans-[PtCl2 (NH3)(quinoline)]] | – | – | in vitro cytotoxicity, effect of planar ligand [4]: dramatically enhances the in vitro cytotoxicity |
| trans-[Pt(PyAc-N,O)Cl(NH3)] [Complex 2] | 880 nM | comparably cytotoxic to cisplatin itself | solubility in water: 4 mmol 1-1 |
